Measured values from US8377935B2, “Substituted aminopropenyl piperidine or morpholine derivatives as novel inhibitors of histone deacetylase” (Janssen Pharmaceutica N.V., priority 2005, dated 2013).

Test: Metabolic stability with rat hepatocytes cell culture
Format: in vitro ADME
Conditions: rat hepatocyte cell cultures, 5 μM
Excerpt: Metabolism of drugs means that a lipid-soluble xenobiotic or endobiotic compound is enzymatically transformed into (a) polar, water-soluble, and excretable metabolite(s). The major organ for drug metabolism is the liver. […] However, some metabolites may have enhanced activity or toxic effects. Thus drug metabolism may include both “detoxication” and “toxication” processes. One of the major enzyme systems that determine the organism's capability of dealing with drugs and chemicals is represented by the cytochrome P450 monooxygenases, which are NADPH dependent enzymes. Metabolic stability of compounds can be determined in vitro with the use of subcellular human tissue (see example C.5.a.). Here metabolic stability of the compounds is expressed as % of drug metabolised after 15 minutes incubation of these compounds with microsomes. Quantitation of the compounds was determined by LC-MS analysis. Metabolic stability of compounds can also be determined by calculating the half live of compounds in rat hepatocyte cells (see example C.5.b.). […]
Samples were prepared for LC-MS by addition of two volumes of DMSO. […] Of the resulting supernatant 50 μl was analysed by LC-MS. […]
Total injection volume of samples was 50 μL. […] The mass spectrometer was operated in positive ion mode in SIM adjusted to the mass of […] with a scan width of 1 Da for quantification purposes. […]

O=C(NO)c1cnc(N2CCC(CNC(/C=C/c3ccccc3)CO)CC2)nc1 (stereo not shown) [Compound 1]
in vitro half-live: 103 min
